ChEMBL document CHEMBL4368932 (Bioorg Med Chem, 2019)

How the values were obtained:
[1] = biological target: T1, Phosphatidylinositol 4,5-bisphosphate 3-kinase catalytic subunit delta isoform (Homo sapiens, UniProt O00329); experiment: Inhibition of recombinant human PI3Kdelta using PIP2 as substrate after 35 to 40 mins by HTRF assay
T1 sequence (O00329 whole entry): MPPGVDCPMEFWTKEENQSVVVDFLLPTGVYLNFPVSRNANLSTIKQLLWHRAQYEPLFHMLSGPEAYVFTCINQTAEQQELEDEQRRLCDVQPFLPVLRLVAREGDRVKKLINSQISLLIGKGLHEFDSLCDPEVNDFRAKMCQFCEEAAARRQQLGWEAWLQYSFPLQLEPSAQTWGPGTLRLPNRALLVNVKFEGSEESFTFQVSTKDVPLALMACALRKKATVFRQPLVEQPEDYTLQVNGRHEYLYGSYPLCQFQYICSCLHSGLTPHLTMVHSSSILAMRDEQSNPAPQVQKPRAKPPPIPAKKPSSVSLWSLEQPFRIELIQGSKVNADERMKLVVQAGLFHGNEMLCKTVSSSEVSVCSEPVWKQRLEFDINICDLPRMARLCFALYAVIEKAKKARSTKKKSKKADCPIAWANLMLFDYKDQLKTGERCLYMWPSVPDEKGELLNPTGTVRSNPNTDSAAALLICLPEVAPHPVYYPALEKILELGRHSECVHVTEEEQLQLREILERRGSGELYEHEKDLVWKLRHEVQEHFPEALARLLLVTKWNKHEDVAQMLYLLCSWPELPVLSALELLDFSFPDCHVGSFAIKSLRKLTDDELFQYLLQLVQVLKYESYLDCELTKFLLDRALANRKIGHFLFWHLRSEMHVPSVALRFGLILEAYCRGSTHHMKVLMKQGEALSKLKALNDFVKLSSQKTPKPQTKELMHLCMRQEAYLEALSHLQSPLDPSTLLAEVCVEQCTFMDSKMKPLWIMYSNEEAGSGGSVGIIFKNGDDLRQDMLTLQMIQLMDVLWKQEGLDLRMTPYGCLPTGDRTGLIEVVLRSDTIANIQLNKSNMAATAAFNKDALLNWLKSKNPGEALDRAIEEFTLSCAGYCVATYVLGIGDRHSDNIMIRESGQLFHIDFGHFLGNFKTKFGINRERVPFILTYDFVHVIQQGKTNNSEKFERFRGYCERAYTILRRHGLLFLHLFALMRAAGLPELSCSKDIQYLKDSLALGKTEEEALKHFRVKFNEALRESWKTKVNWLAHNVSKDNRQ

[2] = biological target: Phosphatidylinositol 4,5-bisphosphate 3-kinase catalytic subunit alpha isoform (Homo sapiens, UniProt P42336); experiment: Inhibition of human PI3Kalpha using phosphatidyl inositol as substrate after 3 hrs by Kinase-Glo Plus reagent-based luminescence assay
[3] = biological target: Phosphatidylinositol 4,5-bisphosphate 3-kinase catalytic subunit beta isoform (Homo sapiens, UniProt P42338); experiment: Inhibition of recombinant human PI3Kbeta using PIP2 as substrate after 35 to 40 mins by HTRF assay
[4] = biological target: Phosphatidylinositol 4,5-bisphosphate 3-kinase catalytic subunit gamma isoform (Homo sapiens, UniProt P48736); experiment: Inhibition of recombinant human PI3Kgamma using PIP2 as substrate after 35 to 40 mins by HTRF assay
B-cell = experiment: Antiproliferative activity against anti-IgM antibody-stimulated BALB/c mouse B cells after 2 days by Alamar Blue reagent-based assay; conditions: 48 h
[5] = Intrinsic clearance in CD1 mouse liver microsomes at 0.2 uM up to 45 mins in presence of NADPH by LC-MS/MS analysis; format: ADME, Microsome; conditions: read-out: CLH
[6] = biological target: T2, Phosphatidylinositol 4,5-bisphosphate 3-kinase catalytic subunit delta isoform (Homo sapiens) (UniProt O00329); experiment: Inhibition of recombinant human PI3Kdelta at 0.1 uM using PIP2 as substrate after 35 to 40 mins by HTRF assay relative to control
T2 sequence (whole entry): T1 sequence (O00329 whole entry)

Chain of Phosphatidylinositol 4,5-bisphosphate 3-kinase catalytic subunit beta isoform (P42338 whole entry, canonical isoform): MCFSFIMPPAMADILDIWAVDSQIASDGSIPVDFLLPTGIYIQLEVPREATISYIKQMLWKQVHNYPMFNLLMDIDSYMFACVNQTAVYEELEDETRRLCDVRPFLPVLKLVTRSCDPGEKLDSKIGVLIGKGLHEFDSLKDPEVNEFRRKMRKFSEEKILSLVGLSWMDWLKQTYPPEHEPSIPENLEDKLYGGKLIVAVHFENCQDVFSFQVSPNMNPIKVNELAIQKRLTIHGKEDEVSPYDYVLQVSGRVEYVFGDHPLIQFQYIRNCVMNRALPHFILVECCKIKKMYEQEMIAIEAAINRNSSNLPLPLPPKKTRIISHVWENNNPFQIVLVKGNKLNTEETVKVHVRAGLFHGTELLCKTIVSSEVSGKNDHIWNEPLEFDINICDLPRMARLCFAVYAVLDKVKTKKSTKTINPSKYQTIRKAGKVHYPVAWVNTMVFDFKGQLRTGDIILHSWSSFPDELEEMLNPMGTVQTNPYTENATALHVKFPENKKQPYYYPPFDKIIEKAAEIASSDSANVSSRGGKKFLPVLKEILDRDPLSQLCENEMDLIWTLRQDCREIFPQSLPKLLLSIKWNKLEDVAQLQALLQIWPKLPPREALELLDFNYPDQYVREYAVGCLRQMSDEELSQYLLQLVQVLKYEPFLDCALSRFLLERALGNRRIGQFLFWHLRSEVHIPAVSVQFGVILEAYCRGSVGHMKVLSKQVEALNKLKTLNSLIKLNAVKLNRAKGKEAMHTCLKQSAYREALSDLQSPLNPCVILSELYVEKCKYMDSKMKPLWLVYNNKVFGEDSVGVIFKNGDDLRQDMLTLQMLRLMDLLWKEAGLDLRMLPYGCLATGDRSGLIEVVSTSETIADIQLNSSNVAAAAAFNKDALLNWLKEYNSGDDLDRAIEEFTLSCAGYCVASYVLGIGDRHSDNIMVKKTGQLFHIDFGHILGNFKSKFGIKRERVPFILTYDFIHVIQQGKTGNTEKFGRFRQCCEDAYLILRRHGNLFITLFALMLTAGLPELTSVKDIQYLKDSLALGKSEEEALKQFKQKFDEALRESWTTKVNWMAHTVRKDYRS
Chain of Phosphatidylinositol 4,5-bisphosphate 3-kinase catalytic subunit alpha isoform (P42336 whole entry, canonical isoform): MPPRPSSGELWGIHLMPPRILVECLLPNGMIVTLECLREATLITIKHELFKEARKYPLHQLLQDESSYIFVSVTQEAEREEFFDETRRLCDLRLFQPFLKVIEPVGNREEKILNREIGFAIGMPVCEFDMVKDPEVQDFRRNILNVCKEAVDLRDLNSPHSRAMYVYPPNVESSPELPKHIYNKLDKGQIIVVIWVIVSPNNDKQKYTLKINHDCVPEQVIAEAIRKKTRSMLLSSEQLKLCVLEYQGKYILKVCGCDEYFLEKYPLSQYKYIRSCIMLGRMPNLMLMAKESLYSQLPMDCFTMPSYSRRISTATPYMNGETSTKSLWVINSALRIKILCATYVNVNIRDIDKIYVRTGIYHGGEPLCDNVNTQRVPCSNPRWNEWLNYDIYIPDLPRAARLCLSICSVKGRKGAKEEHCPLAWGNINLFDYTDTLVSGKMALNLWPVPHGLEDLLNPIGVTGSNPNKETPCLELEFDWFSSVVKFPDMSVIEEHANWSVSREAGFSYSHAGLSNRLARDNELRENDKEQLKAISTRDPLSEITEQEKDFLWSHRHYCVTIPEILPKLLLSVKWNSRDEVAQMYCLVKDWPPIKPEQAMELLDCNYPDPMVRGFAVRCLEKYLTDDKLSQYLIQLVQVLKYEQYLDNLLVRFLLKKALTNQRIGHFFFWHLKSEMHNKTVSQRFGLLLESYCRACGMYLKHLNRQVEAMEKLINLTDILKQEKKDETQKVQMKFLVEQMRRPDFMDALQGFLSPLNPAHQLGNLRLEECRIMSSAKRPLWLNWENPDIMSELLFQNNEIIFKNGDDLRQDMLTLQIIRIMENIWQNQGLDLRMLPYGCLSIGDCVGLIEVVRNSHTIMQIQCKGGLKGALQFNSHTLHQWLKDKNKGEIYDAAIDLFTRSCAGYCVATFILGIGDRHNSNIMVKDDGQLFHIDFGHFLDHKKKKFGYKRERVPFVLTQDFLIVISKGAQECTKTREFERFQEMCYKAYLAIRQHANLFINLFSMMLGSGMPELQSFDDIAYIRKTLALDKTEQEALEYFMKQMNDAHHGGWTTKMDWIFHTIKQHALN
Chain of Phosphatidylinositol 4,5-bisphosphate 3-kinase catalytic subunit gamma isoform (P48736 whole entry, canonical isoform): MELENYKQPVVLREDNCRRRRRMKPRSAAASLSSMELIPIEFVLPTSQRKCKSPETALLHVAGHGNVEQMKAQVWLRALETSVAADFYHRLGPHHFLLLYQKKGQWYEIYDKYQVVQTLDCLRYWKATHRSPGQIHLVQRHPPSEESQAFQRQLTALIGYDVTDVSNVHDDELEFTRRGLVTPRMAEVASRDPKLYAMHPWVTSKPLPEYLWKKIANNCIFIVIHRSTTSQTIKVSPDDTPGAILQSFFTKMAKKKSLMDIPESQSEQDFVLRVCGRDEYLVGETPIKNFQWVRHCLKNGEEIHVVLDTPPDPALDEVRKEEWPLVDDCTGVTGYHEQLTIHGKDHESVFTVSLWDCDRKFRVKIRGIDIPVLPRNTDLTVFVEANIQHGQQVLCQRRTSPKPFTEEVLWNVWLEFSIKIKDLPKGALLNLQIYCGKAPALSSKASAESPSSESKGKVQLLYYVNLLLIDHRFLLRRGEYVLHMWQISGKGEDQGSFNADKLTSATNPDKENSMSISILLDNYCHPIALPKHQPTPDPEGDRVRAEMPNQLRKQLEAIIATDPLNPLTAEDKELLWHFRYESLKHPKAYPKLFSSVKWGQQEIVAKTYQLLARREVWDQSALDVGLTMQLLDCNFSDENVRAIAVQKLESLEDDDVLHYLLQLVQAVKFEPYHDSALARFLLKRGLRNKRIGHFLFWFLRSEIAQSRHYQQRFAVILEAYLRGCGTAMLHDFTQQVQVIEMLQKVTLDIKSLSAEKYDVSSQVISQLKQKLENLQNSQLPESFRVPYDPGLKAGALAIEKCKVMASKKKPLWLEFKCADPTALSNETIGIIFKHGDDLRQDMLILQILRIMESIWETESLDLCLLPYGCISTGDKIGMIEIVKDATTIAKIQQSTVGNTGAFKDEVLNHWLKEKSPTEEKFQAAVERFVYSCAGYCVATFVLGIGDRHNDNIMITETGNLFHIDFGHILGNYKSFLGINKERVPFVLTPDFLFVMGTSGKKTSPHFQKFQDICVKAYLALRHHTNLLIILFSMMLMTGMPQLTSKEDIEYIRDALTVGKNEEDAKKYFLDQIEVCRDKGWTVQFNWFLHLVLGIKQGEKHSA

| Structure (SMILES) | IC50 [1] [nM] | IC50 [2] [nM] | IC50 [3] [nM] | IC50 [4] [nM] | CLint scaled at 0.2 µM [5] [mL/min/kg] | inhibition [6] [%] | IC50 (B-cell) [nM] |
| --- | --- | --- | --- | --- | --- | --- | --- |
| CCN1CCC(Nc2cc(-c3ncnc4c3CN(c3cnc(OC)c(C)c3)CC4)ccn2)CC1 | 8.5 | 4600 | > 10000 | > 10000 | 160 | – | 4.8 |
| COc1ncc(N2CCc3ncnc(-c4ccnc(N[C@H]5CC[C@H](O)CC5)c4)c3C2)cc1C | 27 | 7300 | – | – | – | – | 24 |
| COc1ncc(N2CCc3ncnc(-c4ccnc(NCC5CCOCC5)c4)c3C2)cc1C | 28 | 7500 | 8900 | – | – | – | 17 |
| COCC(=O)N1CCC(Nc2cc(-c3ncnc4c3CN(c3cnc(OC)c(C)c3)CC4)ccn2)CC1 | 9.2 | 9800 | > 10000 | > 10000 | 580 | – | 7.9 |

The next lines start with results.

| IC50 [1] [nM] | IC50 [2] [nM] | IC50 [3] [nM] | IC50 [4] [nM] | CLint scaled at 0.2 µM [5] [mL/min/kg] | inhibition [6] [%] | Structure (SMILES) | IC50 (B-cell) [nM] |
| --- | --- | --- | --- | --- | --- | --- | --- |
| 220 | – | – | – | – | – | COc1ncc(N2CCc3ncnc(Nc4cccc(C)c4)c3C2)cc1C | – |
| 42 | 6100 | – | – | – | – | COc1ncc(N2CCc3ncnc(-c4ccc(NCC5CCOCC5)nc4)c3C2)cc1C | – |
| – | – | – | – | – | 14 | COc1ncc(N2CCc3ncnc(Nc4ccccc4)c3C2)cc1C | – |
| 87 | – | – | – | – | – | COc1ncc(N2CCc3ncnc(-c4ccnc(NCc5ccccc5)c4)c3C2)cc1C | – |
| 47 | – | – | – | – | – | COc1ncc(N2CCc3ncnc(Nc4cccc(C(=O)N5CCOCC5)c4)c3C2)cc1C | – |
| 39 | – | – | – | – | – | COCCNc1cc(-c2ncnc3c2CN(c2cnc(OC)c(C)c2)CC3)ccn1 | – |
